{"source": "patent US10301292B2", "about": "“Bicyclic compound” (Takeda Pharmaceutical Company Limited, priority 2014, dated 2019)", "key": {"[1]": {"tested_on": "human renal cancer cell line 786-O", "experiment": "Antitumor action on human renal cancer cell line 786-O tumor bearing mouse", "assay_type": "in vivo", "settings": "oral, 28 days, 786-O tumor bearing BALB/c nude mouse", "procedure": "The antitumor action of the compound of the present invention on human renal cancer cell line 786-O tumor bearing mouse was evaluated by the following method.\nHuman renal cancer cell line 786-O (purchased from ATCC (American Type Culture Collection)) was transplanted to 6-week-old BALB/c female nude mouse (Shanghai SINO-British SIPPR/BK Lab Animal Ltd) at 3.0×10^6 cells by subcutaneous injection. After transplantation, the engrafted tumor was observed, the tumor diameter was measured on day 10 post-transplantation, and the tumor volume was calculated by the following formula. tumor volume=major axis×minor axis×minor axis×(1/2)\nThe mice having engrafted tumor with a volume size up to 150 mm^3 were selected and used for the experiment (8 per group). The test compound was suspended in 0.5% methylcellulose solution, and orally administered for 28 days at the dose and number of administration shown in the following Table. Finally, for the measurement of the drug effect, the tumor volume was calculated from the tumor diameter of the day before the start of the administration and the final day of the administration, and the tumor growth of the test compound administration group compared to that of the control administration group (T/C) was calculated by the following formula. T/C (%)=(tumor volume after completion of administration in test compound administration group−tumor volume before start of administration in test compound administration group)/(tumor volume after completion of administration in control administration group−tumor volume before start of administration in control administration group))×100\nT/C (%) relative to human renal cancer cell line 786-O tumor bearing mouse at each dose and number of administration of the test compound (specifically, compound shown in Example 98) is shown below."}, "[2]": {"tested_on": "collagen I gene expression in the liver", "experiment": "Effect on liver fibrosis caused by non-alcoholic steatohepatitis (liver collagen I gene expression)", "assay_type": "in vivo", "settings": "LDL receptor deficient mouse, choline-deficient amino acid diet; oral once per day for 3 weeks; normalized by GAPDH; P<0.05 vs. control (FIG. 1)", "description": "The effect of the present compound on liver fibrosis caused by non-alcoholic steatohepatitis was verified by the following method.\nFor efficacy evaluation of the antifibrotic action, 9-week-old, male, homo low-density lipoprotein receptor deficient mouse was used. The low-density lipoprotein receptor deficient mouse was purchased from Jackson Laboratories (Bar Harbor, Me., USA) and bred in Takeda Pharmaceutical Industry. To induce non-alcoholic steatohepatitis, a choline-deficient amino acid diet (A08111307, Research Diets, New Brunswick, N.J., USA) was fed.\nBefore administration of the test compound (specifically, compound shown in Example 98), a choline-deficient amino acid diet was fed for one week, and the drug administration was started. […]\nAfter administration for 3 weeks, the mouse was sacrificed by euthanasia under isoflurane anesthesia under non-fasting and the liver was removed. […] Using RNeasy Mini Kit (Qiagen, Valencia, Calif., USA), the total RNA was purified, cDNA was prepared using High Capacity cDNA Reverse Transcription Kit (PN4368814, Applied Biosystems, Foster City, Calif., USA), and collagen I expression was quantified (collagen type I alpha 1, Part Number 4351370, Applied Biosystems) by the quantitative PCR method (TaqMan Gene Expression Master Mix, PN4369016, Applied Biosystems). […]"}}, "data": [{"smiles": "CC(NC(N)=O)c1ccc2nc(-c3ccc(Oc4cccc(OCC5CC5)c4)nc3)oc2c1", "note": "(stereo not shown) [Example 98, 1-(1-(2-(6-(3-(cyclopropylmethoxy)phenoxy)pyridin-3-yl)-1,3-benzoxazol-6-yl)ethyl)urea]", "values": [{"measurement": "T/C (%)", "setting": "[1]; 0.3 mg/kg, 2 times per day", "value": 50.6, "unit": "%"}, {"measurement": "T/C (%)", "setting": "[1]; 1 mg/kg, 2 times per day", "value": 37.0, "unit": "%"}, {"measurement": "T/C (%)", "setting": "[1]; 3 mg/kg, 2 times per day", "value": 31.1, "unit": "%"}, {"measurement": "T/C (%)", "setting": "[1]; 10 mg/kg, 2 times per day", "value": 4.5, "unit": "%"}, {"measurement": "T/C (%)", "setting": "[1]; 20 mg/kg, 1 time per day", "value": 19.0, "unit": "%"}, {"measurement": "T/C (%)", "setting": "[1]; 30 mg/kg, 2 times per day", "value": 0.5, "unit": "%"}, {"measurement": "expression level of collagen I gene in the liver of a non-alcoholic steatohepatitis model", "setting": "[2]", "value": "significantly suppressed"}]}]}
